Consider 2 molecules from patent US6069177A, “3-Hydroxy-propanamine derived neuronal reuptake inhibitors” (priority 1997, dated 2000).

Like-named read-outs stand apart in the source and are kept apart here.

The target in test [1] is T1, NE reuptake into rat brain synaptosomes (Rattus norvegicus, UniProt Q63380).
T1 construct: A crude synaptosomal (P2) fraction was prepared; tissue Harlan Sprague-Dawley (animals); host or cells: rat hippocampus, crude synaptosomal (P2) fraction
The settings on record: cited from earlier work.

The target in test [2] is T1, NE reuptake into rat brain synaptosomes. The test is described as follows: biochemical. Details: species or system rat (male Sprague-Dawley), hippocampal tissue.
For test [3], the system named is 5-HT, NE and DA reuptake into rat brain synaptosomes. It is filed as biochemical, rat (male Sprague-Dawley). Here is the method: (§1) Briefly, the tissue was homogenized in 20 volumes of ice-cold 0.32 M sucrose containing 11 mM glucose, pH 7.4 in a glass Potter-Elvehjemhomogenizer with teflon pestle (8 strokes, 900 rpm). The homogenate was centrifuged at 1,000 g for 10 minutes. The resulting supernatant was then centrifuged at 20,000 g for 20 minutes and the supernatent was discarded.
(§2) Briefly, synaptosomal protein (1.0-2.5 mg) was suspended in a total volume of 1 mL containing oxygenated incubation buffer, 10 μM pargyline to inhibit monoamine oxidase activity, 0.2 mg/mL sodium ascorbate and varying concentrations of other compounds or drugs as indicated in the text. […] After a 5 minute preincubation at 37° C. in a shaking water bath (80 oscillations/minute), the uptake was initiated by the addition of […]. The reaction was stopped after 5 minute by adding 4 mL ice-cold 0.9% (w/v) sodium chloride and rapidly filtered through a Whatman GF/B glass fiber filter in a 48-place Brandel cell harvester. The filter was then washed with an additional 8 mL of wash buffer, placed in a scintillation vial containing 5 mL of Redi-Safe (Beckman Instruments, Fullerton, Calif.) and counted. Specific uptake was calculated as the difference between the total uptake (zero unlabelled ligand) and nonspecific uptake (excess unlabelled ligand).

Test [4] deals with human norepinephrine transporter (hNET) (Homo sapiens, UniProt P23975). It is filed as binding.
Test [5] addresses T2, DA reuptake into rat brain synaptosomes (Rattus norvegicus, UniProt P23977).
T2 construct: A crude synaptosomal (P2) fraction was prepared; tissue Harlan Sprague-Dawley (animals); host or cells: rat striatum, crude synaptosomal (P2) fraction
Description: DA reuptake inhibition in rat brain synaptosomes. The settings on record: Ki (DA)/Ki (compound or drug); Prozac to Serzone derived from literature Ki. Type of test: biochemical, rat (male Sprague-Dawley), striatal tissue.

The test system of a further test is hSERT, hNET, and hDAT. The test is described as follows: Simultaneous binding to cloned human transporters hSERT, hNET and hDAT. Here is the method:
(§3) These transporters are responsible for neuronal reuptake of the neurotransmitters.
(§4) Cells were incubated in 10% CO2, 90% air at 37° C. and 100% humidity. The selecting antibiotic geneticin sulfate (250 μg/ml) was used during the cell culture for the hNET only.
(§5) For the preparation of homogenates, medium was removed by aspiration. […] Cells were then scraped from the surface with a rubber spatula into a centrifuge tube and collected by centrifugation at 1000×g for 5 min at 4° C. Supernatants were decanted and the pellet was resuspended in the appropriate binding buffer and homogenized with the use of a Polytron for 10 sec at setting 6. This solution was centrifuged at about 36,000×g for 10 minutes (4° C.). The pellet was suspended in the same volume of buffer and the centrifugation was repeated. The supernatants were decanted and the final pellet was suspended in the appropriate buffer and stored at -80° C. until use.
(§6) For the membranal preparation, cells were homogenized in 50 mM Tris-HCl with 120 mM NaCl and 5 mM KC1 (pH 7.4). […] The reaction mixture was incubated at 22° C. for 30 min. The assay was terminated by rapid filtration of the contents of each tube through a GF/B filter strip, which had been pretreated with 0.2% polyethylenimine, with the use of a 48-well Brandel cell harvester. The filter strips were then rinsed five times with ice-cold 0.9% NaCl. Next, individual filters were cut from the strip and placed in a scintillation vial containing 6.5 mL of Redi-Safe (Beckman Instruments, Fullerton, Calif.). Radioactivity was measured with a Beckman liquid scintillation counter (LS 5000TD).
For the membranal preparation, cells were homogenized in 50 mM Tris-HCl with 300 mM NaCl and 5 mM KCl (pH 7.4). […] The reaction mixture was incubated at 22° C. for 60 min. The remaining methods were exactly as described for hSERT above.
(§7) For the membranal preparation, cells were homogenized in the 50 mM Tris-HCl with 120 mM NaCl (pH 7.4). […] The reaction mixture was incubated at 4° C. for 2 hr. The remaining methods were exactly as described for hSERT above.
(§8) The program was modified by the inventors to calculate the Hill Coefficient (nH). […] One-component models and two-component models were compared using the root mean square error of each fit and the F test.

The target in test [6] is T3, 5-HT reuptake into rat brain synaptosomes (Rattus norvegicus, UniProt P31652).
T3 construct: A crude synaptosomal (P2) fraction was prepared; tissue Harlan Sprague-Dawley (animals); host or cells: rat cerebral cortex, crude synaptosomal (P2) fraction
Description: 5-HT reuptake inhibition in rat brain synaptosomes. Type of test: biochemical, rat (male Sprague-Dawley), cortical tissue. The settings on record: Ki (5-HT)/Ki (compound or drug); Prozac to Serzone derived from literature Ki. Here is the method:
as §1, §2

Test [7] addresses T4, human serotonin transporter (hSERT) (Homo sapiens, UniProt P31645).
T4 construct: expressed in transfected cells; membranes of cells expressing the cloned hSERT
It is filed as binding. Here is the method: as §3, §4, §5, §6, §8

In test [8] the target is T5, human dopamine transporter (hDAT) (Homo sapiens, UniProt Q01959).
T5 construct: expressed in transfected cells; membranes of cells expressing the cloned hDAT
The test is described as follows: [3H]WIN35428 binding to cloned human DAT. The settings on record: Kd (DA)/Kd (compound or drug) in the hDAT binding assay. Here is the method:
as §3, §4, §5, §7, §8

Setting [9] is: Table 5, comparison of rat and human data.

T1 sequence (Q63380 1-617): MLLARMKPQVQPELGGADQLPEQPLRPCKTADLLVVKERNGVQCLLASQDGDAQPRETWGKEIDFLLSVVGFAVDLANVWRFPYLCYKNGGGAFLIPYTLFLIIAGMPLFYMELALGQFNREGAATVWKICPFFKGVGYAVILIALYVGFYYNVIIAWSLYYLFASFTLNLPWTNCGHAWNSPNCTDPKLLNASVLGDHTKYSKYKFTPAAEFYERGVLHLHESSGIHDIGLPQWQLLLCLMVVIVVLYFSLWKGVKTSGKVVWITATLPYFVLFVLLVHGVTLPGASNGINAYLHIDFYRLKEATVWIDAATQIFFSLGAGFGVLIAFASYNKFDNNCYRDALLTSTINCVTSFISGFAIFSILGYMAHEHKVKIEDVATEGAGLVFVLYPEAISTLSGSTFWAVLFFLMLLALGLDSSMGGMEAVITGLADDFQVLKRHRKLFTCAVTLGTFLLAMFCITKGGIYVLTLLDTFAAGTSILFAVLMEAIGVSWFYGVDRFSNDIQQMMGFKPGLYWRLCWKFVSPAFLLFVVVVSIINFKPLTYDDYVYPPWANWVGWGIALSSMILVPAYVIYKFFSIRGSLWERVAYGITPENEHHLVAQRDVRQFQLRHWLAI
Sequence of human norepinephrine transporter (hNET) (P23975 whole entry): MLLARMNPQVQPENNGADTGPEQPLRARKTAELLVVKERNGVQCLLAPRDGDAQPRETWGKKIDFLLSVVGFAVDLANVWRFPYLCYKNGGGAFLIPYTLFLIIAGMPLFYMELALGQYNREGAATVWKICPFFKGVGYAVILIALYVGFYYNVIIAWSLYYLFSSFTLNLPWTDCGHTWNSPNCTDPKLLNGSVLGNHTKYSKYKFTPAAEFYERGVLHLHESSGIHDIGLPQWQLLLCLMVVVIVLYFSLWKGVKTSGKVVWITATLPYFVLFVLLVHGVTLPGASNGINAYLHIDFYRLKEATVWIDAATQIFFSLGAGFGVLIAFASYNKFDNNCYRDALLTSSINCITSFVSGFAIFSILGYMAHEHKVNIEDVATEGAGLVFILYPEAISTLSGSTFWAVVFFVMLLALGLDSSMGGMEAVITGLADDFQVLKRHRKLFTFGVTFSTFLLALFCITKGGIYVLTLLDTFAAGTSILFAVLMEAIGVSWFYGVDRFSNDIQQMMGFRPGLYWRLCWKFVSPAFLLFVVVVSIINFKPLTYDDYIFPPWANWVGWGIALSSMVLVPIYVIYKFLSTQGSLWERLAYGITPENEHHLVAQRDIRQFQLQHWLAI
T4 sequence (P31645 whole entry): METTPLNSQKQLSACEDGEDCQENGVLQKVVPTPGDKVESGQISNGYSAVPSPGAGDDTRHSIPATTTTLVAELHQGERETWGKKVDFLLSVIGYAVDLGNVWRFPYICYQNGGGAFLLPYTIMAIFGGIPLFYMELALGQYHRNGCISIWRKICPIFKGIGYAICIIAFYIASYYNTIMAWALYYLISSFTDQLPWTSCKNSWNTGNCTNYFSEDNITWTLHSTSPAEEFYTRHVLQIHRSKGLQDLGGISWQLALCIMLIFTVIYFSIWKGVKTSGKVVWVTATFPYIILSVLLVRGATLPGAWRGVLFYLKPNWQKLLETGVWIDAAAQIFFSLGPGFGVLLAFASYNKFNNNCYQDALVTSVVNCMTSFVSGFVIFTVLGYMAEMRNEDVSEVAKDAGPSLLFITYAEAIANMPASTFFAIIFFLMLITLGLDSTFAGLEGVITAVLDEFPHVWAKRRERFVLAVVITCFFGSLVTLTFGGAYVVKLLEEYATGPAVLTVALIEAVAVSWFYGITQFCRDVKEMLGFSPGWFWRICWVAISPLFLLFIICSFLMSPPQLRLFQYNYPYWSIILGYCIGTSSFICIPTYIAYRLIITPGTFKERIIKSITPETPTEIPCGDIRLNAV
T5 sequence (Q01959 whole entry): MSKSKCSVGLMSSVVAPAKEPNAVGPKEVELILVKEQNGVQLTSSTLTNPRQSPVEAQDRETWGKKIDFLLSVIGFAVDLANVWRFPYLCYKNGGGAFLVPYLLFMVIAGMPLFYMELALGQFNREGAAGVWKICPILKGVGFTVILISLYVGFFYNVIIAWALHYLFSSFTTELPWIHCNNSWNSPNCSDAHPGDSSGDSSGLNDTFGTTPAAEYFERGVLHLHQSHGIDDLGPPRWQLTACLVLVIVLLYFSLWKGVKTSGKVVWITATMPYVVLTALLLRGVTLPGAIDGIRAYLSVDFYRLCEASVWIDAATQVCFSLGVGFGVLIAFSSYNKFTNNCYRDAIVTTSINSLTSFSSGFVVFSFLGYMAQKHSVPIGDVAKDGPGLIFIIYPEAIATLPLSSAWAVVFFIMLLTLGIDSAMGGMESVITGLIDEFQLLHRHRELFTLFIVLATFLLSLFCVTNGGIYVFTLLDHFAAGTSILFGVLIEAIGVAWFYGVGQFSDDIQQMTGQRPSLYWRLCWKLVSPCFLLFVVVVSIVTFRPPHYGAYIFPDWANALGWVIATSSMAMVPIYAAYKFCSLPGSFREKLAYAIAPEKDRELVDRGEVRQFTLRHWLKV
T3 sequence (P31652 whole entry): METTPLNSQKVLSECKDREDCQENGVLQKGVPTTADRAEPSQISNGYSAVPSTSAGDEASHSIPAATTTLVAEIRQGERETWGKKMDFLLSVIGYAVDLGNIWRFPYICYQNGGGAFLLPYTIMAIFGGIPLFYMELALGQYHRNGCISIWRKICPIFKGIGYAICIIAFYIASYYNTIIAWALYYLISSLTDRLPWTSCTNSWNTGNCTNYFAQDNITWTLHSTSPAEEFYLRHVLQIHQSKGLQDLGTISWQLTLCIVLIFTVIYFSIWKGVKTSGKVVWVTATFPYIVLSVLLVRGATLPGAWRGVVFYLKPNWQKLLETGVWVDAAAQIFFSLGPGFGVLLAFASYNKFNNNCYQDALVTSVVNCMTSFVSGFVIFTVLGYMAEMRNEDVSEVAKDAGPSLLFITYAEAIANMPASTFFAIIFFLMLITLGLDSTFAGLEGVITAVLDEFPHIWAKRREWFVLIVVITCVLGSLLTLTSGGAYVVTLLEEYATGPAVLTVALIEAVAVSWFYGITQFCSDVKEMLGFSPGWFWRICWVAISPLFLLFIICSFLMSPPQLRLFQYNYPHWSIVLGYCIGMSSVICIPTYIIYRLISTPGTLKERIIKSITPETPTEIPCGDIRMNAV
T2 sequence (P23977 whole entry): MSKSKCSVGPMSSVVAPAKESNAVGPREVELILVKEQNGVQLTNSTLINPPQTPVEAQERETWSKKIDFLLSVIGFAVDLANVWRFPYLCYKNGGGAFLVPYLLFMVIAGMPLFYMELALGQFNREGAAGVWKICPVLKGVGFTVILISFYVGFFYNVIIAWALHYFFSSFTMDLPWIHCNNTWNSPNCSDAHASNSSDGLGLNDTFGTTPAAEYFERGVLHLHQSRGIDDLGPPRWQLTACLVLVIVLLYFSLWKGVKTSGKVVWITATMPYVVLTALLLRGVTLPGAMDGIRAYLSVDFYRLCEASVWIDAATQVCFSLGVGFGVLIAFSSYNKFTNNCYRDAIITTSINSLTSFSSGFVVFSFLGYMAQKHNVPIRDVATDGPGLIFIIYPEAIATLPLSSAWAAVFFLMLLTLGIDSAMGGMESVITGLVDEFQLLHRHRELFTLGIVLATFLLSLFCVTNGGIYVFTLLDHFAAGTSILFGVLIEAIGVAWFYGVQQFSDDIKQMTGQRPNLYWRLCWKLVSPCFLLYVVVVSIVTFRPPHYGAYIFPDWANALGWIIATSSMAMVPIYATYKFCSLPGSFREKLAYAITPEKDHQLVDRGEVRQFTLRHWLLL

A word on the Ki: it is a measure of affinity in units of concentration, obtained from inhibition or displacement. On to `Fc1ccc([C@@H]2CCNC[C@H]2COc2ccc3c(c2)OCO3)cc1` [Paxil ®, reference compound], for which the Ki in [1] was 33 ± 2 nM. In test [2], the “NE (Rat) Reuptake Inhibition Potency” value amounted to 3.61. For the same molecule, in [3], the “Simultaneous Reuptake Inhibition Potency” value is “no” and the “Simultaneous Reuptake Inhibition Potency (Rat)” value was “no”. Moreover, the “hNet Binding Potency” value in test [4] is given as 55.
On to `COc1ccc([C@H](CN(C)C)[C@@H](O)C2CCCCC2)cc1.Cl` (racemic) [Compound E, (2RS,3SR)-3-Cyclohexyl-3-hydroxy-2-(4'-methoxyphenyl)-propyl-N,N-dimethylammonium chloride], for which the “DA (Rat) Reuptake Inhibition Potency” value in [5] is given as 0.10. In test [2] (Ki (NE)/Ki (compound or drug), Prozac to Serzone derived from literature Ki), the “NE (Rat) Reuptake Inhibition Potency” value came to 0.54. Besides, in test [3], the “Simultaneous Reuptake Inhibition Potency” value is “no”. The “Simultaneous Reuptake Inhibition Potency (Rat)” value in test [3] (setting [9]) was “no”. In [4] (Kd (NE)/Kd (compound or drug) in the hNET binding assay), the “hNet Binding Potency” value was 1.24. In addition, the “Simultaneous Transporter Binding Potency” value in the test on hSERT, hNET, and hDAT (Table 4, each of the potency values greater than 7.0) was “no”. In the test with hSERT, hNET, and hDAT (setting [9]), the “Simultaneous Transporter Binding Potency (Human)” value is “no”. Also, the “5-HT (Rat) Reuptake Inhibition Potency” value in [6] is recorded as 0.62. The “hSert Binding Potency” value in test [7] came to 70. Also, in [8], the “hDAT Binding Potency” value was 0.69.
